# Assay results reported in paper PMC7998669, “7-(2-Anilinopyrimidin-4-yl)-1-benzazepin-2-ones Designed by a “Cut and Glue” Strategy Are Dual Aurora A/VEGF-R Kinase Inhibitors” (Molecules, 2021).
# How the values were obtained:
# [1] = kinetic solubility by nephelometry; format: physicochemical; conditions: phosphate buffer, 25 °C, pH 7.4, aqueous buffer, kinetic from dmso stock, phosphate buffer pH 7.4, 1% DMSO, mean of two measurements, range in brackets
# Protocol: The kinetic solubility of test compounds was determined by nephelometry. Dilution series of test compounds in DMSO with eight to ten different concentrations were prepared. The dilutions were pipetted (2 µL) into the cavities of a 96 well plate (CorningTM UV-transparent flat-bottom microtiter plate; Corning Incorporated, Kennebunk, ME, USA). A phosphate buffer solution pH 7.4 (198 µL) was added, so that the DMSO concentration in the measured solutions was 1%. Three wells were filled with DMSO and phosphate buffer pH 7.4 (2:198) and measured as blank values. The 96 well plate prepared in this way was measured with the NEPHELOstar® Plus nephelometer (BMG Labtech GmbH, Ortenberg, Germany, software: Omega 5.11) at a temperature of 25 °C. Previously, the plate was shaken at 500 rpm for 10 s and the laser intensity was set to 80%. The beam focus was set to 2.50 mm. If the test substance is completely soluble, only a scattering close to the blank value is detected. As soon as a critical concentration is reached in which the kinetic solubility of the test compound is exceeded, solid particles precipitate. Undissolved particles in the sample scatter the laser beam. The intensity of the scattered light is determined, which is proportional to the number of particles in the solution. The blank values were determined and subtracted from the measured values of the test compounds. By measuring different concentrations of the test substances, different intensities of the scattered light, indicated as RNU (relative nephelometric units), were determined. Kick off curves were obtained by plotting concentrations against the RNU values. The point of intersection of the horizontal and of the ascending part of the kick-off curve indicated the kinetic solubility concentration.
# COLO 205 = assay: NCI cancer cell line screen (sulforhodamin B); format: cell-based; conditions: Homo sapiens; COLO 205, Colon; 48 h; read-out: log10 GI50 (converted)
# Protocol: The new dual Aurora A/VEGF-R inhibitors 2e and 2n were selected by the National Cancer Institute for screening in its broad cancer cell line panel. The NCI in vitro assay is performed by incubation of cells with test compounds for 48 h and subsequent cell fixation with trichloroacetic acid. The pink dye sulforhodamin B is added, which binds to the proteins of the fixed cells. After washing and solubilizing the bound stain, the optical density is measured spectrophotometrically to determine the relative proliferation of treated and untreated cells.
# Simultaneous inhibition of the Aurora A kinase and the VEGF-R2/3 receptor kinases may represent an interesting dual activity for the treatment of cancer. The National Cancer Institute selected the compounds 2e and 2n as representatives with particularly high inhibitory activity on the above kinases for testing in the IVCLS (in vitro cell line screening). In this screening, compounds are tested for antiproliferative activity on about 60 in vitro cultivated tumor cell lines. Based on this very broad screening on cell lines from nine tumor entities the general antiproliferative potency of compounds is determined. In addition, the bioinformatic tool COMPARE allowed one to draw conclusions on the molecular target of the compounds from the activity patterns on the different cell lines. Similar molecular mechanisms of action of two compounds are assumed if a Pearson correlation coefficient (PCC) of > 0.6 is calculated by COMPARE [52, 53]. […] The selectivity profile of the two compounds is not very pronounced given the overall very similar proliferation inhibition values across all cell lines. A COMPARE analysis determined a PCC = 0.61 for the patterns of test compounds 2e and 2n, which is consistent with an analogous mechanism of action. However, whether this mechanism is actually based on the inhibition of the inhibited Aurora kinases and VEGF receptor kinases cannot be deduced from these profiles.
Structure (SMILES),solubility kinetic at 10 s [1] [µM],GI50 (COLO 205) [µM]
"O=C1CCCc2cc(-c3ccnc(Nc4ccccc4)n3)ccc2N1 [Compound 2a, 7-(2-Anilinopyrimidin-4-yl)-1,3,4,5-tetrahydro-2H-1-benzazepin-2-one]",~50,–
"COc1ccc(Nc2nccc(-c3ccc4c(c3)CCCC(=O)N4)n2)cc1O [Compound 2n, 7-[2-(3-Hydroxy-4-methoxyanilino)pyrimidin-4-yl]-1,3,4,5-tetrahydro-2H-1-benzazepin-2-one]",92.6,26.3
